Measured values as given in publication PMC8617681 (Pharmaceuticals, 2021).

Tests used:
[1] = test system: RET fusion-positive cancers; settings: clinical phase 1 study; cited from earlier work
[2] = molecular target: T1, human OATP1A2 (Homo sapiens, UniProt P46721); assay: Cellular uptake in OATP1A2-overexpressing HEK293 cells; type: in vitro ADME; settings: 5 µM, 2.5 min incubation, HEK293 OATP1A2
T1 construct: Werner Siegmund and Dr. Markus Keiser (University of Greifswald); host or cells: HEK293
T1 sequence (P46721 1-670): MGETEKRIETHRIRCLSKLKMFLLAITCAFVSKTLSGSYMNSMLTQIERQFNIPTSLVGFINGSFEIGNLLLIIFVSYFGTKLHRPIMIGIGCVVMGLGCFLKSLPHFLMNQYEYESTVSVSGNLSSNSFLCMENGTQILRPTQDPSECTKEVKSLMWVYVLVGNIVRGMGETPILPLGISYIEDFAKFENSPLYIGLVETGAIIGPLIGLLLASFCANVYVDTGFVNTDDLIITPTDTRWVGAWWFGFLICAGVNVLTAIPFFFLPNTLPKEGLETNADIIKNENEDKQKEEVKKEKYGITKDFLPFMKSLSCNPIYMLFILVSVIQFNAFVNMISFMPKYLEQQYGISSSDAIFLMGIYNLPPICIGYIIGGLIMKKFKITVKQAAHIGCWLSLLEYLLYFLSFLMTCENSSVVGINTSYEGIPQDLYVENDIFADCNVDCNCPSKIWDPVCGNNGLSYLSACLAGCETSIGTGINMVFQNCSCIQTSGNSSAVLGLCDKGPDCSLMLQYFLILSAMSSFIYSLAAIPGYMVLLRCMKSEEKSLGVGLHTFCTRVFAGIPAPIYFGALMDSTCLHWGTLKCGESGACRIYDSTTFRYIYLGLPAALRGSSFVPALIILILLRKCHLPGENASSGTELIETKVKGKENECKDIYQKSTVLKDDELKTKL
Procedure: (§1) HEK293 cells, vector-transfected or human (h)SLCO1A2, hSLCO1B1 or hSLCO1B3 cDNA-transfected were kind gifts from Prof. Werner Siegmund and Dr. Markus Keiser (University of Greifswald, Greifswald, Germany). All the HEK293 cell lines were maintained in DMEM supplemented with 10% (v/v) FBS, 1% penicillin–streptomycin mix at 37 °C in 5% (v/v) CO2 and 500 μg/mL G418. Cells were first seeded in 12-well plates [coated with 50 mg/L poly (l-lysine) and 50 mg/L poly (l-ornithine)] at a density of 1.0 × 10^5 cells/well. For the uptake study, in order to induce the expression of OATP transporters, the cell culture medium was replaced with culture medium supplemented with 5 mM sodium butyrate 24 h before performing the uptake assay.
(§2) The uptake transport study was performed as described previously. […] The Krebs–Henseleit solution was prepared from Krebs–Henseleit-buffer modified powder and supplemented with 25 mM NaHCO3 and 2.5 mM CaCl2 adjusted to pH 6.4 with 1 M HCL. At 2.5 min, the incubation buffer was removed, and uptake was terminated by adding 1 mL of ice-cold Krebs–Henseleit buffer, followed by two times washing with 1 mL of ice-cold Krebs–Henseleit buffer. […] The cellular protein amount was determined by the Bradford method using 10 μL of the cell lysates with bovine serum albumin as a standard.

[3] = molecular target: T2, human OATP1B1 (Homo sapiens, UniProt Q9Y6L6); assay: Cellular uptake in OATP1B1-overexpressing HEK293 cells; type: in vitro ADME; settings: 5 µM, 2.5 min incubation, HEK293 OATP1B1
T2 construct: Werner Siegmund and Dr. Markus Keiser (University of Greifswald); host or cells: HEK293
T2 sequence (Q9Y6L6 1-691): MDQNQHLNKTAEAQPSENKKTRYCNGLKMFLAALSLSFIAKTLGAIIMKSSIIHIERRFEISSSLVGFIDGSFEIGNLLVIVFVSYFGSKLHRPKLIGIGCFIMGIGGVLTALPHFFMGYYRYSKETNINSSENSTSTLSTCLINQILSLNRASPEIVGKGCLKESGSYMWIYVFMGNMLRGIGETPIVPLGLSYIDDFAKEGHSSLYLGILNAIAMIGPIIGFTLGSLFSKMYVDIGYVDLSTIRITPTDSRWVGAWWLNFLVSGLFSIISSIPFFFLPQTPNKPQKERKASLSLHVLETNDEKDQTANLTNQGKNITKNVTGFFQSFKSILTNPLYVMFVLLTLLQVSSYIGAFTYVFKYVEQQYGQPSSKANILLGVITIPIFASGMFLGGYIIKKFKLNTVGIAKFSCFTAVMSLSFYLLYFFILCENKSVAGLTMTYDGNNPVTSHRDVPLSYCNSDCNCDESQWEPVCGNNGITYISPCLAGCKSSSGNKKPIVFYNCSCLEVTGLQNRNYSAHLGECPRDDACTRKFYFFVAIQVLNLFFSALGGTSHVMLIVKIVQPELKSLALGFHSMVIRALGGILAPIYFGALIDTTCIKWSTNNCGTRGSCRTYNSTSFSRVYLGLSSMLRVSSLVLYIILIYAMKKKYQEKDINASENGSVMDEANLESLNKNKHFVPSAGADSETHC
Procedure: as §1, §2

[4] = Oral selpercatinib pharmacokinetics in mice, summarised over the studies; type: in vivo; settings: FVB (wild-type), mouse, plasma, 10 mg/kg oral, average
Procedure: For the 4 h transporter experiments, tail-vein blood samples were collected at 0.125, 0.25, 0.5, 1, and 2 h time points after oral administration, respectively. For the CYP3A 8 h experiments, tail-vein blood sampling was performed at 0.25, 0.5, 1, 2, and 4 h, respectively. While for elacridar inhibition experiments, tail-vein blood samples were collected at 0.125, 0.25, 0.5, and 1 h time points after oral administration, respectively. Blood sample collection was performed using microvettes containing dipotassium EDTA. At the last time point in each experiment (2, 4 or 8 h), mice were anesthetized with 5% isoflurane and blood was collected by cardiac puncture. Blood samples were collected in Eppendorf tubes containing heparin as an anticoagulant. The mice were then sacrificed by cervical dislocation and brain, liver, kidney, lung, small intestine and testis were rapidly removed. Plasma was isolated from the blood by centrifugation at 9000× g for 6 min at 4 °C, and the plasma fraction was collected and stored at −30 °C until analysis. Organs were homogenized with 4% (w/v) bovine serum albumin and stored at −30 °C until analysis.
Pharmacokinetic parameters were calculated by noncompartmental methods using the PK solver software. The area under the plasma concentration–time curve (AUC) was calculated using the trapezoidal rule, without extrapolating to infinity. […]

In the case of `COc1ccc(CN2C3CC2CN(c2ccc(-c4cc(OCC(C)(C)O)cn5ncc(C#N)c45)cn2)C3)cn1` [selpercatinib], the overall response rate [1] is listed as 77%, the “uptake compared to vector control cells” value [2] is listed as “did not observe any significant increase in the uptake” and the “uptake compared to vector control cells” value [3] is listed as “did not observe any significant increase in the uptake”. It also gave a Cmax [4] of ~8000 ng/mL.
